The values below come from PMC8618880, “Discovery of GOT1 Inhibitors from a Marine-Derived Aspergillus terreus That Act against Pancreatic Ductal Adenocarcinoma” (Marine Drugs, 2021).

Series [1] concerns the target T1, GOT1 (Homo sapiens, UniProt P17174). Kind of series: GOT1 enzymatic activity (inhibition) assay, MDH-coupled, absorbance 340 nm. In kind it is biochemical. As to conditions: in vitro, read-out: GOT1-inhibitory activity IC50. On the procedure: The GOT1 enzymatic activity assay was carried out using a 96-well plate reader as previously reported. The 100 μL reaction system contained 0.1 mg/mL recombinant GOT1 protein, 1 mM α -KG, 1 mM NADH, 4 mM Asp, and 1 U/mL malate dehydrogenase, and measured absorbance at a wavelength of 340 nm. The degree of absorbance decrease was in direct proportion to GOT1 activity. The inhibitory activity in vitro was measured by adding different concentrations of compounds. SigmaPlot with the PlotEnzyme Kinetics Module was used to analyze the enzyme activity.

Series [2] concerns SW1990 cells. Kind of series: Cell cycle assay, PI staining, flow cytometry. The class given is cell-based, human. On the procedure: The phase distribution of DNA content was determined via propidium iodide (PI) staining. Cells were treated with varying doses of AH or vehicle for 48 h, and then the cell pellets were stained in the dark for 30 min with 60 μg/mL RNase A and 30 μg/mL PI. Finally, CellQuest software (Becton-Dickinson, Franklin Lakes, NJ, USA) was used to perform flow cytometric studies. Three separate experiments were used to determine the cell cycle.
For orientation: A flow cytometer gives signals particle by particle.

The test system of series [3] is SW1990 cells. Kind of series: Annexin V-FITC/PI apoptosis assay by flow cytometry. The class given is cell-based, human. As to conditions: 48 h. On the procedure:
The Annexin V–FITC apoptosis kit was purchased from USA BD PharMingen™. In brief, different concentrations of AH were added to the wells for 48 h, and then the cells were harvested, before being resuspended in Annexin-binding buffer and incubated with Annexin V–FITC (10 mg/mL) and PI in the dark for 15 min. Flow cytometry was used to detect the stained cells and analyze the apoptosis immediately.

Series [4] relates to SW1990 cells. Kind of series: Metabolite abundance and NADPH/NADP+ ratio in cells. As to conditions: AH 10, 20 or 40 µM. The class given is cell-based, human. Here is the method:
SW1990 cells were cultivated to around 50% confluence in DMEM media with 10 mM glucose, 2 mM glutamine, and 5% FBS. A complete medium was prepared prior to two hours of metabolite collection. Quantification kits were used to determine the abundance of Asp (Abcam, #ab102512, Cambridge, UK), Gln (BioVision, #K55, San Francisco, CA, USA), malate (BioVision, #K637, San Francisco, CA, USA), and OAA (Abcam, #ab83428, Cambridge, UK). According to the manufacturer’s instructions, we collected some cells and homogenized them in the buffers provided. The supernatants were centrifuged, and then deproteinized using a 10 K spin column before being analyzed and compared to standard curves.

Series [5] deals with T1, GOT1. The experiment in a line: Microscale thermophoresis (MST) binding to GOT1. As to conditions: read-out: Kd value between AH and GOT1. Here is the method: The Monolith NTTM Protein Labeling Kit was used to test the binding capacity of proteins to AH, according to the manufacturer’s instructions. GOT1 was labeled and diluted in a buffer containing 20 mM HEPES (pH 7.5) and Tween-20 (0.5 (v/v)%), and then incubated with different concentration of AH for 10 min at 37 °C. Subsequently, the materials were put into standard capillary tubes and tested for thermophoresis using a Monolith NT.115 instrument (NanoTemper Technologies, München, Germany). The parameters were set to temperature 25 °C, LED power 100%, and laser power 40%, with a 30 s on-time. NTAnalysis software was used to calculate the Kd values.

Series [6] is described as follows: MTT cell viability assay, nonmalignant pancreatic duct epithelial cells. In kind it is cell-based. As to conditions: human, HPDE6C7 nonmalignant pancreatic duct epithelial cells, read-out: cytotoxicity IC50. On the procedure:
(§1) Pancreas (SW1990, AsPC-1, PANC-1), colorectal (HCT116), breast (HCC1806, MM231, MM453), and ovarian cancer cells (ES2), along with a nonmalignant human pancreatic duct epithelial cell line (HDPE6C7), were obtained from ATCC, and were cultured in 1640 medium or Dulbecco’s modified Eagle medium (DMEM) supplemented with 10% (v/v) fetal bovine serum (FBS), 100 μg/mL streptomycin, and 100 U/mL penicillin. Cells were maintained in a humidified atmosphere of 5% CO2 at 37 °C. MTT (3-(4,5-dimethylthiazol-2-yl)-2,5-diphenyl tetrazolium bromide) assay was used to assess the cell viability. Briefly, cells were seeded in 96-well plates at a density of 5 × 10^3 cells per well for 24 h. Then, the medium was removed, and the cells were treated with different concentrations (0.1–100 μM) of AH, with DMSO as a vehicle control. After incubation for 48 h, 100 μL of MTT solution (2 mg/mL) was added to each well, and the wells were incubated at 37 °C for another 4 h. The formed formazan crystals were dissolved in DMSO (200 μL/well) and shaken for 5 min. Then, the absorbance of the solution was measured at 490 nm with a microplate reader. IC50 values were interpolated from the resulting dose-dependent curves using GraphPad Prism 7.0. The reported IC50 values are the average of three independent experiments, each consisting of six replicates per concentration level (overall n = 18).

The subject of series [7] is SW1990, PANC-1, and AsPC-1 cell lines. Kind of series: MTT cell viability assay, PDAC cell lines. As to conditions: Homo sapiens, 48 h, read-out: cytotoxicity IC50. The class given is cell-based. Here is the method:
as §1
(In general: Tetrazolium assays rely on reduction of a dye to a coloured formazan, in cell work by metabolically active cells.)

Series [8] has as its system SW1990 cells. Kind of series: EDU staining and wound-healing cell migration test. The class given is cell-based, human. As to conditions: 0-40 µM, 0-48 h. Here is the method:
SW1990 cells were seeded in 6-well plates for 24 h. Each well was scratched with a 10 μL pipette tip, and then the plate was washed with PBS to peel off the suspended cells, before adding different concentrations of AH (0–40 μM). Images from the same area of the wound were taken separately under a microscope from 0 to 48 h.

In another series the test system is SW1990 xenografts. Kind of series: SW1990 xenograft in CB-17/SCID mice. In kind it is in vivo. On the procedure: Animal treatment and experiments were conducted in the Experimental Animal Center. Commercial 8-week-old CB-17/SCID mice (male) were purchased from Huafukang, China. After being resuspended using 0.1 mL of PBS, SW1990 cells (3 × 10^6) were injected subcutaneously into the lower flanks of the mice. When the tumors attained a diameter of ~3 mm, the mice were randomly divided into three groups—2.5 mg/kg, 5 mg/kg, and control—and were subsequently injected intraperitoneally with normal saline or AH every day. A Vernier caliper was used to measure the size of the tumors. After two weeks of therapy, mice were euthanized under deep anesthesia (chloral hydrate, 10%, 10 μL/g), and tumor tissue metabolites were detected using the above method. All animal studies were carried out in accordance with the Huazhong University of Science and Technology’s guidelines.

In series [9] the test system is SW1990 cells. The experiment in a line: Intracellular ROS measurement with DCFDA. The class given is cell-based, human. As to conditions: AH 10, 20 or 40 µM. The source says:
GOT1 is a key enzyme that is involved in the production of Gln-dependent NADPH in PDAC, and catalyzes the reversible conversion of Asp to OAA. To investigate the effects of AH on Gln metabolism, the associated metabolites including OAA and malate (Mal) were detected. […] As excessive reactive oxygen species (ROS) can enhance cellular oxidative stress—resulting in damage to DNA, proteins, or lipids, causing apoptosis or necrosis [29]—we examined the physiological correlation between AH treatment and ROS response. 2,7-Dichlorofluorescein diacetate (DCFDA) was used to measure the intracellular ROS levels.

Setting [10] is: 2.5 and 5 mg/kg/d intraperitoneal, 14 days.
[11] abbreviates: tumor tissue after 14 days treatment.

T1 sequence (P17174 whole entry): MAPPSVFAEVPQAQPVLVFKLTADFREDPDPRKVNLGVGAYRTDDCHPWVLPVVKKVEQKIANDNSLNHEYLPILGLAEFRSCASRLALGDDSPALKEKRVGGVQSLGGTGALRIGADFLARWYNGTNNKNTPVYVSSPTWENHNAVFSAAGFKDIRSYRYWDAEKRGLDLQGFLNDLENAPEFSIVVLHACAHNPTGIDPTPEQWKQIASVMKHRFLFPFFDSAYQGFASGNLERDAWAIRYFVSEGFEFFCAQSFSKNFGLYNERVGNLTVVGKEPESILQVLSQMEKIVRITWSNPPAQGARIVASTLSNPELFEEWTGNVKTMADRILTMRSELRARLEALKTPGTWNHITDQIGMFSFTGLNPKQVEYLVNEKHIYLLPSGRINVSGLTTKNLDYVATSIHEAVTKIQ

By IC50 is commonly meant the concentration at which inhibition is half-maximal. For `CO[C@H]1OC(=O)C(c2ccc(O)cc2)=C1Cc1ccc(O)c(CC=C(C)C)c1` [Compound 5, (+)-asperteretone B], at GOT1 [1], the IC50 is 19.16 ± 0.15 µM.

One may read the Kd as the free concentration of one partner at which half of the binding sites on the other are occupied at equilibrium, for simple one-to-one binding. In the case of `CC(C)=CCc1cc(/C=C2\OC(=O)C(c3ccc(O)c(CC=C(C)C)c3)=C2O)ccc1O` [Compound 6, aspulvinone H], in the series on SW1990 cells [2] (SW1990, 10 µM), the “proportion of S-phase cells” value amounted to 32.5% and the “proportion of cells in G0/G1 phase” value was 59.4%. Moreover, in the series on SW1990 cells [2] (SW1990, 20 µM), the “proportion of S-phase cells” value is recorded as 38.6% and the “proportion of cells in G0/G1 phase” value is given as 48.6%. Moreover, in the series on SW1990 cells [2] (SW1990, 40 µM), the “proportion of S-phase cells” value was 43.9% and the “proportion of cells in G0/G1 phase” value worked out at 43.5%. In addition, the “change in G2/M phase” value in the series with SW1990 cells [2] (SW1990, high-dose AH) is given as “only a slight increase”. This compound also displayed an apoptosis induction rate in the series with SW1990 cells [3] (SW1990, 10 µM) of 9.5%. This compound also yielded an apoptosis induction rate in the series on SW1990 cells [3] (SW1990, 40 µM) of 80.2%. In addition, in the series on SW1990 cells [4], the “content of Asp” value was “increasing”, the “content of Mal” value is “reduced”, the “content of OAA” value is listed as “reduced” and the “ratio of NADPH/NADP+” value is recorded as “remarkably decreased”. Also, the Kd at GOT1 [5] is 2.14 ± 0.47 µM. Also, the 50% inhibitory concentration (IC50) on GOT1 [1] is 5.91 ± 0.04 µM. Also, in [6], the IC50 at 48 h is above 100 µM. Further, in [7], the IC50 is 6.32 to 10.5 µM. Moreover, the “proliferation and migration (EDU staining, wound healing)” value in the series on SW1990 cells [8] is “anti-proliferative effect”. Further, in the series with SW1990 xenografts (setting [10]), the “body weight of the mice” value is listed as “no significant changes” and the “histomorphology of the mice” value was “no significant changes”. Further, the “tumor volume vs control group” value with SW1990 xenografts (2.5 and 5 mg/kg/d intraperitoneal, 14 days, CB-17/SCID mice) is “significantly smaller”. For the same compound, in the series on SW1990 xenografts (setting [11]), the “tumor tissue Asp” value is recorded as “increased”, the “tumor tissue Gln” value is recorded as “increased”, the “tumor tissue Mal” value is listed as “decreased” and the “tumor tissue OAA” value is given as “decreased”. Further, in the series with SW1990 xenografts (setting [11]), the “tumor tissue proportion of NADPH/NADP+” value is on record as “decrease”. Besides, the “intracellular ROS level” value in the series on SW1990 cells [9] is recorded as “positively correlated”.

As for `COC(=O)[C@]1(Cc2ccc(O)c(CC=C(C)C)c2)OC(=O)C(O)=C1c1ccc(O)c(CC=C(C)C)c1` [Compound 12, (+)-3′,3′-di-(dimethylallyl)-butyrolactone II], at GOT1 [1], the half-maximal inhibitory concentration (IC50) was 26.38 ± 0.1 µM.
